Data on 1 compound can be found in EPA's ToxValDB 9.5 (doi:10.2903/j.efsa.2010.1721).

For orientation: NOAEL means the highest tested level that showed no adverse finding.

The structures appear in SMILES notation.

One data set deals with Anas platyrhynchos. The following applies: oral, mortality.
For the next data set, the system named is Apis mellifera. The following applies: acute; duration: 48 hours; oral; unspecified; mortality.
The test system of the next data set is Canidae. The following applies: chronic; duration: 1 years; oral; Dog Other; organ weight.
The subject of a further data set is Colinus virginianus. The following applies: for LD50: acute, oral, mortality.
Another data set deals with Daphnia magna. The following applies: chronic/long-term; duration: 21 days; reproduction.
The test system of a further data set is Mus musculus. The following applies: acute; oral; mortality.
The next data set relates to Oryctolagus sp. The following applies: reproduction developmental; body weight.
For another data set, the system named is Tagia sp. The following applies: acute; duration: 14 days; mortality.
A further data set relates to Aphidius rhopalosiphi. Nature of the data set: LR50; higher = less toxic. The following applies: not reported; mortality.
Another data set deals with Typhlodromus pyri. Nature of the data set: LR50; higher = less toxic. The following applies: not reported; mortality.

Consider `CCOc1ccc(NC(=O)OC(C)C)cc1OCC` [Diethofencarb], for which the LD50 with Anas platyrhynchos (acute, unspecified) was more than 2250 mg/kg-day; with Anas platyrhynchos (short-term, feed), more than 1630 mg/kg-day; with Apis mellifera, more than 100 µg/piece; in the data set with Colinus virginianus (diet), more than 1810 mg/kg-day; with Colinus virginianus, more than 2250 mg/kg-day; with Mus musculus it was more than 5000 mg/kg-day. This compound came in with an LD50 in the data set on Rattus norvegicus (acute, oral, mortality) of more than 5000 mg/kg-day. Also, the NOAEL was found to be 50 mg/kg-day with Canidae and 42.7 mg/kg-day with Rattus norvegicus (chronic, duration: 2 years, organ weight). The results for the NOEL with Colinus virginianus (reproduction developmental) and with Oryctolagus sp. were 78.7 mg/kg-day and 300 mg/kg-day, respectively. Further, the NOEC came out at 0.032 mg/L with Daphnia magna and 0.072 mg/L with Oncorhynchus mykiss (chronic/long-term, duration: 88 days, growth). For the same compound, the LC50 in the data set on Oncorhynchus mykiss (acute, duration: 96 hours, mortality) was more than 10 µg/mL; in the data set with Tagia sp. it was more than 1000 mg/kg. The LR50 was more than 1500 g/ha in the data set with Aphidius rhopalosiphi and 7.2 g/ha with Typhlodromus pyri.
